The values that follow come from ChEMBL document CHEMBL1137253, “Novel C-3 N-urea, amide, and carbamate dihydroindazolo[5,4-a]pyrrolo[3,4-c]carbazole analogs as potent TIE-2 and VEGF-R2 dual inhibitors” (Bioorg Med Chem Lett, 2006).

In one data set the target is Angiopoietin-1 receptor (Homo sapiens, UniProt Q02763).
A short description of data set [1]: Volume of distribution in rat at 1 mg/kg, iv. To be noted: in vivo, read-out: Vdss. In kind it is ADME, organism-based. Details: dose 1 mg/kg, route intravenous.
The nature of data set [2]: AUC (0-infinity) in rat at 5 mg/kg, po. In kind it is ADME, organism-based. To be noted: plasma. Details: time infinity, dose 5 mg/kg, route oral.
The species entered for a further data set is Mus musculus. Kind of data set: Antitumor activity against murine SVR cells in nude mice. It counts as functional.
The next data set relates to Rattus norvegicus. Kind of data set: Toxicity assessed by gastrointestinal hemorrhage in rat at 10 mg/kg. In kind it is organism-based. More on the design: dose 10 mg/kg. To be noted: in vivo.
Data set [3] can be described thus: Tmax in rat at 5 mg/kg, po. More on the design: dose 5 mg/kg, route oral. To be noted: in vivo. In kind it is ADME, organism-based.
A short description of data set [4]: Cmax in rat at 5 mg/kg, po. It counts as ADME, organism-based. Details: dose 5 mg/kg, route oral. To be noted: in vivo.
The nature of data set [5]: AUC (0-t) in rat at 5 mg/kg, po. In kind it is ADME, organism-based. Details: dose 5 mg/kg, route oral. To be noted: plasma.
Data set [6] can be described thus: Half life in rat at 1 mg/kg, iv. Conditions: in vivo. It counts as ADME, organism-based. More on the design: dose 1 mg/kg, route intravenous.
Data set [7] can be described thus: AUC (0-infinity) in rat at 1 mg/kg, iv. Conditions: plasma. More on the design: time infinity, dose 1 mg/kg, route intravenous. It counts as ADME, organism-based.
A short description of data set [8]: AUC (0-t) in rat at 1 mg/kg, iv. In kind it is ADME, organism-based. More on the design: dose 1 mg/kg, route intravenous. Conditions: plasma.
Data set [9] in a line: Clearance in rat at 1 mg/kg, iv. It counts as ADME, organism-based. More on the design: dose 1 mg/kg, route intravenous. Conditions: in vivo.

Sequence of Angiopoietin-1 receptor (Q02763 whole entry): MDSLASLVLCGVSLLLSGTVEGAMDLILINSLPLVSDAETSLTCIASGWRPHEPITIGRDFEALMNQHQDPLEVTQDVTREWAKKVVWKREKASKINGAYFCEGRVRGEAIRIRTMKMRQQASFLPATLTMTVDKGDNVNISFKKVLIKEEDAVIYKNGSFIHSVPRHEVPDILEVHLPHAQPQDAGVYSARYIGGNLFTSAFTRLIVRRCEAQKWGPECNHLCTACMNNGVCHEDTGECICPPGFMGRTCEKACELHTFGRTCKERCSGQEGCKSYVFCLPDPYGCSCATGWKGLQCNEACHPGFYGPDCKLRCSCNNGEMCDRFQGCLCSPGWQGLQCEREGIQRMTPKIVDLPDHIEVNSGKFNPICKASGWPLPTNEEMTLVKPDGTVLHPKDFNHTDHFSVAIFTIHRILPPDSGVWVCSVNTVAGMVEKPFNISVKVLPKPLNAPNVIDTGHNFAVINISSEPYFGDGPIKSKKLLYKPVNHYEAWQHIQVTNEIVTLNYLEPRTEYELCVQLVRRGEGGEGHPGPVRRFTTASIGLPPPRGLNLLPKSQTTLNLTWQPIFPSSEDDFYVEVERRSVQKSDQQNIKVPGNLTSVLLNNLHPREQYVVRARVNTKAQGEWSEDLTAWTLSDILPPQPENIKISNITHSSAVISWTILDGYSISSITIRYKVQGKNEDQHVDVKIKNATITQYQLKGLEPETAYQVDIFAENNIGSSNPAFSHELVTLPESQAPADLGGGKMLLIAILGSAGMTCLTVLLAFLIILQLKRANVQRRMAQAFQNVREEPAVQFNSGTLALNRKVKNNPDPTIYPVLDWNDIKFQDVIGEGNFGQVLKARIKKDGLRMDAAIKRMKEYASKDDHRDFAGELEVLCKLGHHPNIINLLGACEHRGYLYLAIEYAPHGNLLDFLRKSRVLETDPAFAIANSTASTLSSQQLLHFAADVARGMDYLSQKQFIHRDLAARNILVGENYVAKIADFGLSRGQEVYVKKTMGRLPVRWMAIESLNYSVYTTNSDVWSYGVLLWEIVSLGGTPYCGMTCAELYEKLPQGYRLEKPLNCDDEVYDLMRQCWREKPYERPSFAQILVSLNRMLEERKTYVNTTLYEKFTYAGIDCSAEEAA

Take `CCCCn1c2ccc(N)cc2c2c3c(c4c(c21)CCc1nn(C)cc1-4)C(=O)NC3`: at Angiopoietin-1 receptor, the 50% inhibitory concentration (IC50) (in general, the concentration needed to halve the response being measured) was determined as 230 nM.

On Angiopoietin-1 receptor, `CC(C)Cn1c2ccc(NC(=O)c3cccs3)cc2c2c3c(c4c(c21)CCc1nn(C)cc1-4)C(=O)NC3` yielded an IC50 of 10 nM.

`CC(C)Cn1c2ccc(NC(=O)c3ccco3)cc2c2c3c(c4c(c21)CCc1nn(C)cc1-4)C(=O)NC3`: the 50% inhibitory concentration (IC50) at Angiopoietin-1 receptor is 20 nM.

For `CCCn1c2ccc(NC(=O)Nc3ccccc3Cl)cc2c2c3c(c4c(c21)CCc1nn(C)cc1-4)C(=O)NC3`, the IC50 against Angiopoietin-1 receptor worked out at 3 nM.

On to `CCCn1c2ccc(NC(=O)Nc3ccccc3F)cc2c2c3c(c4c(c21)CCc1nn(C)cc1-4)C(=O)NC3`, for which half-maximal inhibition at Angiopoietin-1 receptor (IC50) was put at 2 nM.

For `CCCn1c2ccc(NC(=O)Nc3ccc(Cl)cc3)cc2c2c3c(c4c(c21)CCc1nn(C)cc1-4)C(=O)NC3`, the IC50 on Angiopoietin-1 receptor worked out at 6 nM.

In the case of `CCn1c2ccc(NC(=O)Nc3ccc(OC)cc3)cc2c2c3c(c4c(c21)CCc1nn(C)cc1-4)C(=O)NC3`, the concentration for half-maximal inhibition (IC50) against Angiopoietin-1 receptor was 4 nM.

The molecule `CCCn1c2ccc(NC(=O)Nc3ccc(N(C)C)cc3)cc2c2c3c(c4c(c21)CCc1nn(C)cc1-4)C(=O)NC3` yielded an IC50 at Angiopoietin-1 receptor of 6 nM.

With `CCCn1c2ccc(NC(=O)Oc3ccc(F)cc3)cc2c2c3c(c4c(c21)CCc1nn(C)cc1-4)C(=O)NC3`, the IC50 against Angiopoietin-1 receptor was 11 nM.

Regarding `CCCn1c2ccc(NC(=O)Nc3cc(C(F)(F)F)ccc3F)cc2c2c3c(c4c(c21)CCc1nn(C)cc1-4)C(=O)NC3`, half-maximal inhibition against Angiopoietin-1 receptor (IC50) required 4 nM.

Regarding `CCCn1c2ccc(NC(=O)Nc3cccc(F)c3)cc2c2c3c(c4c(c21)CCc1nn(C)cc1-4)C(=O)NC3`, inhibition at Angiopoietin-1 receptor was half-maximal at 2 nM (IC50).

As for `CCCn1c2ccc(N)cc2c2c3c(c4c(c21)CCc1nn(C)cc1-4)C(=O)NC3`, on Angiopoietin-1 receptor, the IC50 was 36 nM.

`CCCn1c2ccc(NC(=O)OCC)cc2c2c3c(c4c(c21)CCc1nn(C)cc1-4)C(=O)NC3`: the IC50 against Angiopoietin-1 receptor was determined as 18 nM.

As to `CCCn1c2ccc(NC(=O)Nc3ccc(OC)cc3)cc2c2c3c(c4c(c21)CCc1nn(C)cc1-4)C(=O)NC3`, inhibition at Angiopoietin-1 receptor was half-maximal at 2 nM (IC50).

With `CCCCn1c2ccc(NC(=O)Nc3ccc(OC)cc3)cc2c2c3c(c4c(c21)CCc1nn(C)cc1-4)C(=O)NC3`, inhibition at Angiopoietin-1 receptor was half-maximal at 7 nM (IC50).

The molecule `CCCn1c2ccc(NC(=O)Nc3ccccc3Br)cc2c2c3c(c4c(c21)CCc1nn(C)cc1-4)C(=O)NC3` returned a half-maximal inhibitory concentration (IC50) against Angiopoietin-1 receptor of 4 nM.

On Angiopoietin-1 receptor, `CCCn1c2ccc(NC(=O)Nc3ccc(SC)cc3)cc2c2c3c(c4c(c21)CCc1nn(C)cc1-4)C(=O)NC3` showed a concentration for half-maximal inhibition (IC50) of 3 nM.

`CCCn1c2ccc(NC(=O)N(C)c3ccccc3)cc2c2c3c(c4c(c21)CCc1nn(C)cc1-4)C(=O)NC3` yielded an IC50 against Angiopoietin-1 receptor of 2 nM.

For `COc1ccccc1NC(=O)Nc1ccc2c(c1)c1c3c(c4c(c1n2CC(C)C)CCc1nn(C)cc1-4)C(=O)NC3`, inhibition on Angiopoietin-1 receptor was half-maximal at 8 nM (IC50).

Consider `CCCn1c2ccc(NC(=O)Nc3ccccc3)cc2c2c3c(c4c(c21)CCc1nn(C)cc1-4)C(=O)NC3`, for which, on Angiopoietin-1 receptor, inhibition was half-maximal at 5 nM (IC50).

Take `CCCn1c2ccc(NC(=O)OC(C)C)cc2c2c3c(c4c(c21)CCc1nn(C)cc1-4)C(=O)NC3`: in data set [1], the Vd is 2.34 L/kg. The total exposure AUC(0-inf) (in general, total exposure, with the tail of the curve extrapolated) in [2] was determined as 3770 ng·h/mL; in data set [7], 1710 ng·h/mL. The Activity in the data set listed under Mus musculus is recorded as 62%; with Rattus norvegicus, “Toxic”. Further, the Tmax (commonly the time at which the peak concentration occurs) in data set [3] was determined as 4 h. In addition, in data set [4], the peak concentration (Cmax) – broadly, the highest concentration seen after dosing – was 552 ng/mL. Inhibition against Angiopoietin-1 receptor was half-maximal at 11 nM (IC50). Moreover, the area under the curve AUC(0-t) (usually exposure summed from dosing to a finite time, without extrapolation to infinity) in data set [5] is 2420 ng·h/mL; in data set [8], 1420 ng·h/mL. Also, the half-life (as a rule, how long it takes for the measured level to halve) in [6] is 2.84 h. The clearance (in general, the volume of plasma or blood freed of the substance per unit of time) in data set [9] was 10.5 mL/min/kg.

`CCCOC(=O)Nc1ccc2c(c1)c1c3c(c4c(c1n2CCC)CCc1nn(C)cc1-4)C(=O)NC3` had an IC50 against Angiopoietin-1 receptor of 7 nM.

As to `CCCn1c2ccc(NC(=O)Nc3cc(C)ccc3F)cc2c2c3c(c4c(c21)CCc1nn(C)cc1-4)C(=O)NC3`, on Angiopoietin-1 receptor, the concentration for half-maximal inhibition (IC50) worked out at 1 nM.

As for `CCCn1c2ccc(NC(=O)Oc3ccc(OC)cc3)cc2c2c3c(c4c(c21)CCc1nn(C)cc1-4)C(=O)NC3`, the 50% inhibitory concentration (IC50) at Angiopoietin-1 receptor came out at 5 nM.

Turning to `COc1ccc(NC(=O)Nc2ccc3c(c2)c2c4c(c5c(c2n3CC(C)C)CCc2nn(C)cc2-5)C(=O)NC4)cc1`, the concentration for half-maximal inhibition (IC50) against Angiopoietin-1 receptor came out at 3 nM.

At Angiopoietin-1 receptor, `CCCn1c2ccc(NC(=O)Nc3ccc(F)cc3)cc2c2c3c(c4c(c21)CCc1nn(C)cc1-4)C(=O)NC3` had a half-maximal inhibitory concentration (IC50) of 2 nM.

On to `CCCn1c2ccc(NC(=O)c3cccs3)cc2c2c3c(c4c(c21)CCc1nn(C)cc1-4)C(=O)NC3`, for which the IC50 on Angiopoietin-1 receptor came to 12 nM.

With `CC(C)Cn1c2ccc(N)cc2c2c3c(c4c(c21)CCc1nn(C)cc1-4)C(=O)NC3`, the IC50 at Angiopoietin-1 receptor is 48 nM.

Regarding `COc1cccc(NC(=O)Nc2ccc3c(c2)c2c4c(c5c(c2n3CC(C)C)CCc2nn(C)cc2-5)C(=O)NC4)c1`, at Angiopoietin-1 receptor, the 50% inhibitory concentration (IC50) was 4 nM.

For `CCCn1c2ccc(NC(=O)Nc3ccc(C)cc3)cc2c2c3c(c4c(c21)CC(C=N)=CC4)C(=O)NC3`, inhibition on Angiopoietin-1 receptor was half-maximal at 3 nM (IC50).

On Angiopoietin-1 receptor, `CCCn1c2ccc(NC(=O)Nc3cccs3)cc2c2c3c(c4c(c21)CCc1nn(C)cc1-4)C(=O)NC3` returned a half-inhibitory concentration (IC50) of 19 nM.

In the case of `CCCn1c2ccc(NC(=O)c3ccco3)cc2c2c3c(c4c(c21)CCc1nn(C)cc1-4)C(=O)NC3`, the concentration for half-maximal inhibition (IC50) against Angiopoietin-1 receptor is 29 nM.
